pKi: −log10 of the molar value. Each block holds one compound with its values, some of them ahead of it.
Legend:
D2 = molecular target: D2; parameters: method as in Yasuno et al. [2006]; conditions: ref Yasuno et al. [2006]; cited from earlier work
5-HT1A receptors = molecular target: 5-HT1A receptors; parameters: method as in Yasuno et al. [2006]; conditions: ref Yasuno et al. [2006]; cited from earlier work
D4 = molecular target: D4; parameters: method as in Yasuno et al. [2006]; conditions: ref Yasuno et al. [2006]; cited from earlier work
D3 = molecular target: D3; parameters: method as in Yasuno et al. [2006]; conditions: ref Yasuno et al. [2006]; cited from earlier work
5-HT2B receptors = molecular target: 5-HT2B receptors; parameters: method as in Yasuno et al. [2006]; conditions: ref Yasuno et al. [2006]; cited from earlier work
[1] = molecular target: alpha-1 (α1) adrenergic receptors; parameters: method as in Yasuno et al. [2006]; conditions: ref Yasuno et al. [2006]; cited from earlier work
NET = NET (Homo sapiens, UniProt P23975); assay: NIMH-PDSP radioligand binding assay, NET
Sequence of NET (P23975 whole entry): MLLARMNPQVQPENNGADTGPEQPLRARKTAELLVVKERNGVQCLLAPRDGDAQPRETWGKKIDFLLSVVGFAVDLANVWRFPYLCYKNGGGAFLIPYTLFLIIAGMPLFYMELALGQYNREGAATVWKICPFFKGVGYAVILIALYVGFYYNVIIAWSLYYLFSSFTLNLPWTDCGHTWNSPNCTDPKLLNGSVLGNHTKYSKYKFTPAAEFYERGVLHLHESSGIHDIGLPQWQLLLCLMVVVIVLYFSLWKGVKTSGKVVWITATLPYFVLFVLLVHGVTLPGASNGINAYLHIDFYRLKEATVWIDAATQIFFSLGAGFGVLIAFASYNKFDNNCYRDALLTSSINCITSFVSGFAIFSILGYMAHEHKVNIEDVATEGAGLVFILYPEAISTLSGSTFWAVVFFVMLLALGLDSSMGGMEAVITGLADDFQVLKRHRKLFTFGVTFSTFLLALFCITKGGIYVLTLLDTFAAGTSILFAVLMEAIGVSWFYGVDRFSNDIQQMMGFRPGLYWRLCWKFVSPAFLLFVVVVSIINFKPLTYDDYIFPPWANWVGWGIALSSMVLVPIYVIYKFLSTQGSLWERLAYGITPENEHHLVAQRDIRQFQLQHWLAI
Experimental: (§1) . Cross selectivity for biogenic amines, neurotransmitter receptors, and transporters were determined by radioligand binding assays through NIMH- PDSP using validated and established protocols ([NIMH-PDSP Assay Protocol Book Version III, March 2018]).

DAT = DAT (Homo sapiens, UniProt Q01959); assay: NIMH-PDSP radioligand binding assay, DAT
Experimental: as §1

D3R = molecular target: T1, D3R (Homo sapiens, UniProt P35462); assay: NIMH-PDSP radioligand binding assay, D3R
T1 construct: NIMH-PDSP
T1 sequence (P35462 whole entry): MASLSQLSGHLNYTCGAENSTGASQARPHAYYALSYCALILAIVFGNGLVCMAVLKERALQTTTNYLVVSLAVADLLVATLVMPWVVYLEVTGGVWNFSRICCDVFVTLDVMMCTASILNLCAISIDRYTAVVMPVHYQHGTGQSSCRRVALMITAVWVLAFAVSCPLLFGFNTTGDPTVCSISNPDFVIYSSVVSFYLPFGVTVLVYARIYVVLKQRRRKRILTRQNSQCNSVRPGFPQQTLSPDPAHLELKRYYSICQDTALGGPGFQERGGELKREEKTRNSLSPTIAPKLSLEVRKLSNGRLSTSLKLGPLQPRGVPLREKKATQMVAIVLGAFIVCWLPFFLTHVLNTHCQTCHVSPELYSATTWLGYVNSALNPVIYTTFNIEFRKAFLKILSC
Experimental: as §1

D4R = molecular target: T2, D4R (Homo sapiens, UniProt P21917); assay: NIMH-PDSP radioligand binding assay, D4R
T2 construct: NIMH-PDSP
T2 sequence (P21917 1-419): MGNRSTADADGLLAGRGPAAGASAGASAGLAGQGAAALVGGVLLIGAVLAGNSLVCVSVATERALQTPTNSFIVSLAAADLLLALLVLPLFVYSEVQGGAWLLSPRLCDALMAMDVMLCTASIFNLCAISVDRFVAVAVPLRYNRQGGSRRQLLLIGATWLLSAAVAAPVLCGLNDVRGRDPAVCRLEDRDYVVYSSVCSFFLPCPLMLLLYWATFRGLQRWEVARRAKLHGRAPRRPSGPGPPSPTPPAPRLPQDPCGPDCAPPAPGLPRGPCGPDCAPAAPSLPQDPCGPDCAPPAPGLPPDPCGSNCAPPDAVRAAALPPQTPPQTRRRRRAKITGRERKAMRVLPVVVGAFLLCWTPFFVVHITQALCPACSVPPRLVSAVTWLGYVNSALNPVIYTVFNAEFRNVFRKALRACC
Experimental: as §1

5-HT6 = molecular target: T3, 5-HT6 (Homo sapiens, UniProt P50406); assay: NIMH-PDSP radioligand binding assay, 5-HT6
T3 construct: NIMH-PDSP
Experimental: as §1

5-HT1E = molecular target: T4, 5-HT1E (Homo sapiens, UniProt P28566); assay: NIMH-PDSP radioligand binding assay, 5-HT1E
T4 construct: NIMH-PDSP
T4 sequence (P28566 whole entry, species assumed): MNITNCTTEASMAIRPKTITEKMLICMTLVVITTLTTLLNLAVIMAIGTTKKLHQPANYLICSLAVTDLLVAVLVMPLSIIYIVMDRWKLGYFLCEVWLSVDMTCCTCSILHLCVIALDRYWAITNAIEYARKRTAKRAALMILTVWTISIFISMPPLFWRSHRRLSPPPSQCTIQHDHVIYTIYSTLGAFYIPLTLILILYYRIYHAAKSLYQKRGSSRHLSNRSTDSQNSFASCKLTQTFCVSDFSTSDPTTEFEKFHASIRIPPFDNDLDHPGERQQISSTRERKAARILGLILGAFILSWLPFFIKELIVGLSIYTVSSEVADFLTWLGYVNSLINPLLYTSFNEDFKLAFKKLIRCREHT
Experimental: as §1

SERT = SERT (Homo sapiens, UniProt P31645); assay: NIMH-PDSP radioligand binding assay, SERT
Sequence of SERT (P31645 whole entry, species assumed): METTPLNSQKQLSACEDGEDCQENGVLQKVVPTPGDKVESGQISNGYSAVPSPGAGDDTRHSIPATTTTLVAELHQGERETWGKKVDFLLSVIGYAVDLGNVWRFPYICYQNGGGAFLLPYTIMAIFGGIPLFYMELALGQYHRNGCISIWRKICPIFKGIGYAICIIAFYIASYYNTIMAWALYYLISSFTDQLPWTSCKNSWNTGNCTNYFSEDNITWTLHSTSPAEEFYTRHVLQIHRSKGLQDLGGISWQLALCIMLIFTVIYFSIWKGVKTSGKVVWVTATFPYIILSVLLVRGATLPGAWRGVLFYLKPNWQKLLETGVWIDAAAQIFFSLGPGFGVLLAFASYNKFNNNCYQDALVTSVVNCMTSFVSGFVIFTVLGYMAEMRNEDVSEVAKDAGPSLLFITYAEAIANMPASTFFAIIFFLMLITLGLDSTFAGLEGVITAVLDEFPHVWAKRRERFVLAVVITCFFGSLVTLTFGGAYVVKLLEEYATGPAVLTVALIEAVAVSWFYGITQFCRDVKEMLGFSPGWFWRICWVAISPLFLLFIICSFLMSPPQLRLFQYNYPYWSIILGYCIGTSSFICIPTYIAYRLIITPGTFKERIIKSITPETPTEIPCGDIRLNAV
Experimental: as §1

PBR = molecular target: T5, PBR (Rattus norvegicus, UniProt P16257); assay: NIMH-PDSP radioligand binding assay, PBR
T5 construct: NIMH-PDSP
Experimental: as §1

Sigma1R = molecular target: T6, Sigma1R (Homo sapiens, UniProt Q99720); assay: NIMH-PDSP radioligand binding assay, Sigma1R
T6 construct: NIMH-PDSP
T6 sequence (Q99720 whole entry, species assumed): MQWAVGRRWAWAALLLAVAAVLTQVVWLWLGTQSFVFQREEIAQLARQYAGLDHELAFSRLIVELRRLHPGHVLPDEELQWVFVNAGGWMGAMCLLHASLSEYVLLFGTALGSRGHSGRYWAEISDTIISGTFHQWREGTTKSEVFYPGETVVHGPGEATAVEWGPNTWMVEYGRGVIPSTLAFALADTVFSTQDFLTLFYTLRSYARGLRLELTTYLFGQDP
Experimental: as §1

5-HT5a = molecular target: T7, 5-HT5a (Homo sapiens, UniProt P47898); assay: NIMH-PDSP radioligand binding assay, 5-HT5a
T7 construct: NIMH-PDSP
T7 sequence (P47898 whole entry, species assumed): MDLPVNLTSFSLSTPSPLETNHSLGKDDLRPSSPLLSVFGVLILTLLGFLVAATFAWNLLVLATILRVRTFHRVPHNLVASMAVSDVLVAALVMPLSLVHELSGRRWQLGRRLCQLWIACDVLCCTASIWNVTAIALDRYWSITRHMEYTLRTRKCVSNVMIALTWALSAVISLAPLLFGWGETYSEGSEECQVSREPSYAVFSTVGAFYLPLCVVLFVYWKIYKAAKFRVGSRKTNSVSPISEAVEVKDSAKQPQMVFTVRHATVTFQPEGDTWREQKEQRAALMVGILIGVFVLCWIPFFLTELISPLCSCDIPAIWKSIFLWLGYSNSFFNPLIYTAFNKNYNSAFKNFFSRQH
Experimental: as §1

NOP = molecular target: T8, NOP (Homo sapiens, UniProt P41146); assay: NIMH-PDSP radioligand binding assay, NOP
T8 construct: NIMH-PDSP
T8 sequence (P41146 whole entry): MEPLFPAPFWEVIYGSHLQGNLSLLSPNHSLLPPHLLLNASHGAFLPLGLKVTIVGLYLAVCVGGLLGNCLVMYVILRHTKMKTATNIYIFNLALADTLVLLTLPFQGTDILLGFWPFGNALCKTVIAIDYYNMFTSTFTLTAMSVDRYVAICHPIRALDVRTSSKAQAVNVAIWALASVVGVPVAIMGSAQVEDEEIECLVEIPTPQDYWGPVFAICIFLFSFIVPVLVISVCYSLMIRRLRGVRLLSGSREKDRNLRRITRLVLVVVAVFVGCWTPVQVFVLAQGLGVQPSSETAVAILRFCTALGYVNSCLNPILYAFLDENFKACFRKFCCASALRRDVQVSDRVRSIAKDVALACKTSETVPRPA
Experimental: as §1

5-HT1B = molecular target: T9, 5-HT1B (Homo sapiens, UniProt P28222); assay: NIMH-PDSP radioligand binding assay, 5-HT1B
T9 construct: NIMH-PDSP
T9 sequence (P28222 whole entry, species assumed): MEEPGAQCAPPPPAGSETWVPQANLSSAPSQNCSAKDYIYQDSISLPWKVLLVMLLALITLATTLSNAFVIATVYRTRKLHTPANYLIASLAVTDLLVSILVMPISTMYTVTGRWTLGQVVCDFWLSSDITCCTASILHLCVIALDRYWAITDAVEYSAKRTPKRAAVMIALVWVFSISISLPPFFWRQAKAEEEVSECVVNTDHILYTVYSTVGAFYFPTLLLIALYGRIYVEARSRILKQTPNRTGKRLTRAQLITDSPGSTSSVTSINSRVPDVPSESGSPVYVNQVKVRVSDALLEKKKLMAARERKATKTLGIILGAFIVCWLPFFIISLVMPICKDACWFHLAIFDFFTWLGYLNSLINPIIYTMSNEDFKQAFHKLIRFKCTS
Experimental: as §1

5-HT2B = molecular target: T10, 5-HT2B (Homo sapiens, UniProt P41595); assay: NIMH-PDSP radioligand binding assay, 5-HT2B
T10 construct: NIMH-PDSP
T10 sequence (P41595 whole entry, species assumed): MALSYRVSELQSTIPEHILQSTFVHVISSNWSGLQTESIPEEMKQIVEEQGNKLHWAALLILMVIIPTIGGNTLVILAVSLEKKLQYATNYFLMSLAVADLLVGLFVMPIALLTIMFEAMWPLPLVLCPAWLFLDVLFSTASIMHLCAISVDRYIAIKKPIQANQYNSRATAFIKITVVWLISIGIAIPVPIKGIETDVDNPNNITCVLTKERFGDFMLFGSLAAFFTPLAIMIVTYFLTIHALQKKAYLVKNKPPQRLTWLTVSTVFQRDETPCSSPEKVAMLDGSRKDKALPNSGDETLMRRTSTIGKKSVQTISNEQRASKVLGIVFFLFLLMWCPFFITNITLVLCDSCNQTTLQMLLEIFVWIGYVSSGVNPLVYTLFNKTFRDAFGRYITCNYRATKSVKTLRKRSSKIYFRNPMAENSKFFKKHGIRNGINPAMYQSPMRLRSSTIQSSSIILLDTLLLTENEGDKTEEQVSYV
Experimental: as §1

5-HT4 = molecular target: T11, 5-HT4 (Homo sapiens, UniProt Q13639); assay: NIMH-PDSP radioligand binding assay, 5-HT4
T11 construct: NIMH-PDSP
T11 sequence (Q13639 whole entry, species assumed): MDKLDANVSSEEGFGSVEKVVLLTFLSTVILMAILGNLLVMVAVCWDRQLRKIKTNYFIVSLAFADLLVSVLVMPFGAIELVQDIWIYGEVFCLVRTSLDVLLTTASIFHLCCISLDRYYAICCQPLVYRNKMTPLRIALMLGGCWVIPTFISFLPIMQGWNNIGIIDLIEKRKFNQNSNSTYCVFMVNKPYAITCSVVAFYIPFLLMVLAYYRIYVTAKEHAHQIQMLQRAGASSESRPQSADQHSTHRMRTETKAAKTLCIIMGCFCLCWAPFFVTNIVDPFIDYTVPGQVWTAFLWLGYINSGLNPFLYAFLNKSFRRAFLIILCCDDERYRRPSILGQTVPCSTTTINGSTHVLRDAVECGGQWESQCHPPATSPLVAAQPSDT
Experimental: as §1

5-HT3 = molecular target: T12, 5-HT3 (Homo sapiens, UniProt P46098); assay: NIMH-PDSP radioligand binding assay, 5-HT3
T12 construct: NIMH-PDSP
T12 sequence (P46098 24-478): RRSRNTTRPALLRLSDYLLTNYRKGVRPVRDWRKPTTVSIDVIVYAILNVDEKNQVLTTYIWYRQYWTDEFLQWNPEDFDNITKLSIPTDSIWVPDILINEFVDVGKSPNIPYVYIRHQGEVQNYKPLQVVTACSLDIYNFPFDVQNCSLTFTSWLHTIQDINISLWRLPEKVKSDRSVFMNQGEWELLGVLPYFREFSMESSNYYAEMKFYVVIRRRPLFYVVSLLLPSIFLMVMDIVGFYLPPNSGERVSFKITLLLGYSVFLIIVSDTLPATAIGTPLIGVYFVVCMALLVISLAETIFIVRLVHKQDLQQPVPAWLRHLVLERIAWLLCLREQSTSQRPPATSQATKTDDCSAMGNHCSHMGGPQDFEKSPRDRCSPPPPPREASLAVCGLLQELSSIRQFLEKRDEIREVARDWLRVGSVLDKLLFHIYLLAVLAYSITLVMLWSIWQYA
Experimental: as §1

5-HT1D = molecular target: T13, 5-HT1D (Homo sapiens, UniProt P28221); assay: NIMH-PDSP radioligand binding assay, 5-HT1D
T13 construct: NIMH-PDSP
T13 sequence (P28221 whole entry, species assumed): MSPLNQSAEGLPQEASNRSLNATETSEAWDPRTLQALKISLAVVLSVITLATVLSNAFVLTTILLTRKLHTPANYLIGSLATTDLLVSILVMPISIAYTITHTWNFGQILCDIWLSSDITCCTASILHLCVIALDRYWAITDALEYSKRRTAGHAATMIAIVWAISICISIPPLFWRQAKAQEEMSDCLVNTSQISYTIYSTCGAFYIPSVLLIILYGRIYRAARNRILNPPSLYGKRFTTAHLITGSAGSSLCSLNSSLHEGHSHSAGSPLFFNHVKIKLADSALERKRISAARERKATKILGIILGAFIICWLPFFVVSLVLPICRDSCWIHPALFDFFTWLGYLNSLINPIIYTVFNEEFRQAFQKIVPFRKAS
Experimental: as §1

[2] = Dynamic PET/MR imaging of brain uptake in rats; assay type: in vivo; conditions: rat; for Brain uptake: dynamic PET, bolus i.v. injection, 60 min scan
Experimental: […]. All experimental procedures were carried out in accordance with the Institutional Animal Care Committee ethical guidelines (Animal Use Protocol # 783).
Adult male Sprague Dawley rats (500–600 g, 8–12 months old) were anesthetized by isoflurane (5% induction; O2 rate: 2 L/min) and catheterized in the lateral tail vein using a Surflash Polyurethane IV Catheter 24G × 3/4″(Terumo; Somerset, New Jersey, US). Following insertion, the catheter was flushed with heparinized saline (30 IU/ml, ~ 200 μl). The animal was transferred to the scanner bed in prone position, the head immobilized in a flat skull position for the duration of the acquisition using built in ear and bite bars; the scanner bed temperature was initially set at 40 °C but was subject to alteration based on animals’ body temperature during the experiment. Anesthesia was maintained throughout the PET/MR scanning procedure (isoflurane: 1.5–2%; O2 rate: 1 L/min) and the animals’ body temperature and respiration parameters were closely monitored.
Imaging studies were conducted on a nanoScan PET/MRI 3 T tomograph (Mediso; Budapest, Hungary). At first, a scout MR was acquired for subsequent PET field of view (FOV) positioning. MR images were used to define anatomical regions of interest (ROIs) through PET/MRI image co-registration. MR sequences included: material map T1-weighted 2D-gradient echo (GRE, TR 354 ms, TE 3.64) multi-FOV sequence for PET and MR co-registration and PET scatter and attenuation corrections, and T2-weighted 2D-fast spin-echo (FSE, TR 3971 ms, TE 87.5 ms) sequence for co-registration with standard rat brain MR template and atlas of Schwarz et al. ([2006]), and PET ROI analyses. MR images were acquired either before or after PET imaging.
[…]. mass injected for [^11C]1–3: 0.15–0.40 nmol/kg), a 60 min emission list mode scan was acquired with an energy window of 400–600 keV.
The acquired list mode data was sorted into 33, 3D (3 × 5 s, 3 × 15 s, 3 × 20s, 7 × 60s and 17 × 180 s) true sinograms (ring difference 84). The 3D sinograms were converted in 2D sinograms using fourier-rebinning (Defrise et al. [1997]), during which corrections were included for detector geometry and efficiencies, attenuation and scatter, prior to image reconstruction using a 2D–filtered back projection (FBKP) with an Hann filter at a cutoff of 0.50 cm-1. A static image of the complete emission acquisition was reconstructed with the manufacturer’s proprietary iterative 3D algorithm (6 subsets, 4 iterations). All image data were corrected for dead-time and decay corrected to the start of acquisition. The dynamic FBKP images were used for the extraction of time-activity curves (TACs). The static iterative image was used for PET and MR co-registration and also for co-registration with standard rat brain MR template and atlas (Schwarz et al. [2006]). Image analyses and extraction of regional brain TACs were performed using Amide software (v1.0.4) (Loening and Gambhir [2003]). Standardized uptake values (SUV) were calculated by normalizing regional radioactivity for injected radioactivity and body weight of the animal. Regional brain BP were obtained by using simplified reference tissue model (SRTM) of Lammertsma and Hume ([1996]), with averaged TACs of left and right cerebellum as the reference. […] Percentages of blocking were calculated by the equation: Blocking% = 100 x (BPblocking – BPbaseline)/BPbaseline.

α1-adrenergic receptors [3] = assay: PET/MR blocking study with prazosin pre-treatment; assay type: in vivo, Sprague Dawley rats; conditions: prazosin 2 mg/kg IV 20 min prior to tracer, rat
Experimental: 5-HT1A receptor selectivity of the radiotracer with the most promising brain penetrating properties was further investigated in two separate baseline and pre-treatment (blocking) experiments. A within-subject PET/MR imaging design was employed for baseline and blocking experiments. In the first PET/MR imaging session, brain radiotracer uptake was determined under baseline conditions whereby radiotracer was intravenously administered simultaneously with the start of PET acquisition. The catheter was flushed with heparinized saline (~ 100 μl) and capped to allow blocker/radiotracer injections for the subsequent pre-treatment experiment. Before the start of the second PET measurement, the animals were infused with a suitable blocking agent intravenously 20 min prior to radiotracer injection and concomitant PET acquisition. To confirm target engagement at 5-HT1A receptor, WAY-100635 maleate (Sigma-Aldrich), a potent 5-HT1A receptor antagonist (2 mg/kg) was infused intravenously 20 min before radiotracer injection. In order to further investigate potential off-target binding at α1-adrenergic receptors in vivo, prazosin hydrochloride (Sigma-Aldrich), a potent α1-adrenergic receptor antagonist (2 mg/kg) was infused 20 min before radiotracer injection and PET acquisition.
The acquired list mode data was sorted into 33, 3D (3 × 5 s, 3 × 15 s, 3 × 20s, 7 × 60s and 17 × 180 s) true sinograms (ring difference 84). The 3D sinograms were converted in 2D sinograms using fourier-rebinning (Defrise et al. [1997]), during which corrections were included for detector geometry and efficiencies, attenuation and scatter, prior to image reconstruction using a 2D–filtered back projection (FBKP) with an Hann filter at a cutoff of 0.50 cm-1. A static image of the complete emission acquisition was reconstructed with the manufacturer’s proprietary iterative 3D algorithm (6 subsets, 4 iterations). All image data were corrected for dead-time and decay corrected to the start of acquisition. The dynamic FBKP images were used for the extraction of time-activity curves (TACs). The static iterative image was used for PET and MR co-registration and also for co-registration with standard rat brain MR template and atlas (Schwarz et al. [2006]). Image analyses and extraction of regional brain TACs were performed using Amide software (v1.0.4) (Loening and Gambhir [2003]). Standardized uptake values (SUV) were calculated by normalizing regional radioactivity for injected radioactivity and body weight of the animal. Regional brain BP were obtained by using simplified reference tissue model (SRTM) of Lammertsma and Hume ([1996]), with averaged TACs of left and right cerebellum as the reference. This was performed by using the basis function method (BFM) of Gunn et al. ([1997]) in the package of Turku PET Centre (https://gitlab.utu.fi/vesoik/tpcclib) (Gunn et al. [1997]). Percentages of blocking were calculated by the equation: Blocking% = 100 x (BPblocking – BPbaseline)/BPbaseline.

α1-adrenergic receptors [4] = molecular target: α1-adrenergic receptors; parameters: method as in Chemel et al. [2006]; conditions: ref Chemel et al. [2006]; cited from earlier work

Compound: COc1ccccc1N1CCN(CCC(C(=O)N2CCCCCC2)c2ccccc2)CC1 (stereo in doubt) [[^11C](R)-RWAY]
pKi (D2): 7.46
pKi (5-HT1A receptors): 9.22
pKi (D4): 7.81
pKi (D3): 8.29
pKi (5-HT2B receptors): 8.14
pKi [1]: 7.99

melting point: 112 to 113 °C
Compound: O=C(NCCN1CCN(c2ccccc2O)CC1)c1ccccn1 [10a, N-(2-(4-(2-hydroxyphenyl)piperazin-1-yl)ethyl)picolinamide]

melting point: 105 to 106 °C
Compound: O=C(NCCN1CCN(c2ccccc2O)CC1)c1ccncc1 [10b, N-(2-(4-(2-hydroxyphenyl)piperazin-1-yl)ethyl)isonicotinamide]

pKi (NET): < 5.00
pKi (DAT): < 5.00
pKi (D3R): 6.88
pKi (D4R): 6.82
pKi (5-HT6): < 5.00
pKi (5-HT1E): < 5.00
pKi (SERT): < 5.00
pKi (PBR): < 5.00
pKi (Sigma1R): < 5.00
pKi (5-HT5a): 5.74
pKi (NOP): < 5.00
pKi (5-HT1B): < 5.00
pKi (5-HT2B): 6.86
pKi (5-HT4): < 5.00
pKi (5-HT3): < 5.00
pKi (5-HT1D): 5.93
Compound: COc1ccccc1N1CCN(CCNC(=O)c2ccncc2)CC1 [Compound 3]

Compound: [11CH3]Oc1ccccc1N1CCN(CCCN/C(=N\C#N)c2ccccn2)CC1 [[^11C]1]
Brain uptake [2]: negligible

Compound: [11CH3]Oc1ccccc1N1CCN(CCNC(=O)c2ccccn2)CC1 [[^11C]2]
Brain uptake [2]: negligible

Compound: [11CH3]Oc1ccccc1N1CCN(CCNC(=O)c2ccncc2)CC1 [[^11C]3]
decrease of whole brain BP (α1-adrenergic receptors [3]; SRTM, cerebellum reference): 63%
decrease of BP in anterior cingulate cortex (α1-adrenergic receptors [3]): 69%
decrease of BP in hippocampus (α1-adrenergic receptors [3]): 56%
decrease of BP in striatum (α1-adrenergic receptors [3]): 34%
decrease of BP in thalamus (α1-adrenergic receptors [3]): 73%
decrease of binding in the saliva gland (α1-adrenergic receptors [3]): 68%
early peak SUV in brain ([2]; male, Sprague Dawley, in vivo): 4–5
time of early peak SUV following radiotracer injection ([2]; male, Sprague Dawley, in vivo): ~ 1 min
washout from brain ([2]; in vivo): fast

Compound: COc1ccccc1N1CCN(CCN(C(=O)C2CCCCC2)c2ccccn2)CC1 [[carbonyl-^11C]WAY100635]
pKi (α1-adrenergic receptors [4]): 7.79

melting point: 137 to 138 °C
Compound: N#CN=C(NCCCN1CCN(c2ccccc2O)CC1)c1ccccn1 [compound 7, N'-Cyano-N-(3-(4-(2-hydroxyphenyl)piperazin-1-yl)propyl)picolinamidine]

From publication PMC7237647, “Synthesis, in vitro and in vivo evaluation of ^11C-O-methylated arylpiperazines as potential serotonin 1A (5-HT1A) receptor antagonist radiotracers” (EJNMMI Radiopharmacy and Chemistry, 2020)
